# In patent US20040102383A1, “Growth inhibition and eradication of solid tumors using neuroendocrine resetting therapy and photodynamic therapy” (priority 1996, published 2004):
# How the values were obtained:
# [1] = system: EMT-6 cells derived from a murine mammary sarcoma; assay: EMT-6 implanted tumor mouse model: PDT with EtNBS with or without timed prolactin (Examples 1-2); type: in vivo, Balb/c mice
# Procedure: Adult (6-7 wk old) male Balb/c mice were subcutaneously injected with EMT-6 cells derived from a murine mammary sarcoma (1.7×10^6 cells) on the hind quarter and were divided into four groups (n=10 per group) and treated as follows: Group 1 (D+L) received photodynamic therapy at 14 days after tumor inoculation. Photodynamic therapy consisted of subcutaneously injecting a benzophenothiazine photosensitizer (EtNBS, FIG. 7)(7.5 mg/kg of body weight) and 3 hrs later irradiating the tumor with 652 nm light at a power density of 150 mW/cm2 and a total energy of 100 J/cm^2. Group 2 (PRL) received intraperitoneal ovine prolactin (20 mcg/mouse) at 10 hours after light onset starting at 7 days after tumor inoculation and continuing for 14 days. Group 3 (D+L+PRL) received both PDT (as described above) and prolactin (as described above). Group 4 (CON) remained untreated (control). Fourteen days following PDT tumor volume was determined in all animals.
# Example 1 was repeated with different PDT power density and energy characteristics (for groups 2 and 3) which better optimize the PDT effect. […] Under these conditions, tumor “cure” (tumor-free for at least 90 days) of 4-8 mm diameter tumors can be achieved in 70-100% of the cases largely dependent upon the tumor size at the time of PDT. However, if intraperitoneal prolactin administration (20 mcg/mouse/day at 10 hours after light onset) is added to PDT treatment (starting from the day of tumor cell inoculation), then the tumor cure rate is 100%.
# The typical response observed using PDT alone with the PDT parameters employed are (in sequence): 1) an inflammation of the photoirradiated spot encompassing the tumor within about 30 minutes which increases to a maximum inflammation at about 3-5 hours; 2) inflammation completely subsides in 48-72 hours leaving noticeable tumor which takes 14 days to regress completely. Eschar formation occurs at 24-48 hours.
# At 4-7 days the irradiated area has healed completely. This response cannot be obtained with PDT or prolactin alone.
# EMT-6 cells [2] = assay: EMT-6 implanted tumor mouse model: PDT with EtNBS with or without bromocriptine (Example 4); type: in vivo, Balb/c mice; details: PDT alone (EtNBS 7.5 mg/kg sc, 652 nm, 50 mW/cm2, 100 J/cm^2)
# Procedure: (§1) Adult (6-7 wk old) male Balb/c mice are subcutaneously injected with EMT-6 cells (1.7×10^6 cells) on the hind quarter and are divided into four groups (n=10 per group) and are treated as follows: group 1 receives photodynamic therapy (PDT) at 14 days after tumor inoculation. PDT consists of subcutaneously injecting a benzophenothiazine photosensitizer (EtNBS)(7.5 mg/kg of body weight) and 3 hrs later irradiating the tumor with 652 nm light at a power density of 50 mW/cm2 and a total energy of 100 J/cm^2. Group 2 receives intraperitoneal bromocriptine (50 mcg/mouse) at 0 hours after light onset starting at 7 days after tumor inoculation and continuing for 14 days. Group 3 receives both PDT (as described above) and intraperitoneal bromocriptine (as described above). Group 4 remains untreated (control). Fourteen days following PDT tumor volume is determined in all animals.
# EMT-6 cells [3] = assay: EMT-6 implanted tumor mouse model: PDT with EtNBS with or without bromocriptine and melatonin (Example 6); type: in vivo, Balb/c mice
# Procedure: as §1, with “of 50 mW/cm^2 and a” for “of 50 mW/cm2 and a”, “2 receives intraperitoneal melatonin (8 mg/kg) at 10 hours after light onset and intraperitoneal bromocriptine” for “2 receives intraperitoneal bromocriptine”, “intraperitoneal bromocriptine and intraperitoneal melatonin (as described” for “intraperitoneal bromocriptine (as described”
# EMT-6 cells [4] = assay: EMT-6 implanted tumor mouse model: PDT with EtNBS with or without melatonin (Example 5); type: in vivo, Balb/c mice
# Procedure: Adult (6-7 wk old) male Balb/c mice are injected subcutaneously with EMT-6 cells (1.7×10^6 cells) on the hind quarter and are divided into four groups (n=10 per group) and are treated as follows: group 1 receives photodynamic therapy (PDT) at 14 days after tumor inoculation. PDT consists of subcutaneously injecting a benzophenothiazine photosensitizer (EtNBS)(7.5 mg/kg of body weight) and 3 hrs later irradiating the tumor with 652 nm light at a power density of 50 mW/cm^2 and a total energy of 100 J/cm^2. Group 2 receives intraperitoneal melatonin (8 mg/kg) at 10 hours after light onset starting at 7 days after tumor inoculation and continuing for 14 days. Group 3 receives both PDT (as described above) and intraperitoneal melatonin (as described above). Group 4 remains untreated (control). Fourteen days following PDT tumor volume is determined in all animals.
# [5] = in vivo; cited from earlier work
# [6] = system: EMT-6 cells derived from a murine mammary sarcoma; assay: EMT-6 implanted tumor mouse model: PDT with Dye 4-115 with or without timed prolactin (Example 3); type: in vivo, Balb/c mice
# Procedure: Adult (6-7 wk old) male Balb/c mice are subcutaneously injected with EMT-6 cells derived from a murine mammary sarcoma (1.7×10^6 cells) on the hind quarter and are divided into four groups (n=10 per group) and are treated as follows: group 1 receives photodynamic therapy (PDT) at 14 days after tumor inoculation. PDT consists of intravenously injecting a benzophenothiazine photosensitizer (Dye 4-115)(2.5 mg/kg of body weight) and 1 hr later irradiating the tumor with a broad wavelength light source (600-700 nm) at a power density of 50 mW/cm^2 and a total energy of 100 J/cm^2. Group 2 receives intraperitoneal ovine prolactin (20 mcg/mouse) at 10 hours after light onset starting at 7 days after tumor inoculation and continuing for 14 days. Group 3 receives both PDT (as described above) and prolactin (as described above). Group 4 remains untreated (control). Fourteen days following PDT tumor volume is determined in all animals.
# body fat stores = details: cited from earlier work
# immune responses = details: timed daily administration within a specific window of time; no effect outside it; cited from earlier work
# tumor burden = assay: Timed prolactin injections in tumor bearing mice; type: in vivo; details: circadian rhythms synchronized with a defined photoperiod; versus tumor bearing mice without timed prolactin injections
# [7] = PDT alone (EtNBS 7.5 mg/kg sc, 652 nm, 50 mW/cm^2, 100 J/cm^2)
# [8] = ip prolactin added to EtNBS PDT
# [9] = ip prolactin added to Dye 4-115 PDT
molecule,measurement,setting,value
CCNc1cc2sc3cc(=[N+](CC)CC)ccc-3nc2c2ccccc12.[Cl-] [EtNBS],"tumor ""cure"" (tumor-free for at least 90 days)","[1]; PDT alone (EtNBS 7.5 mg/kg sc, 652 nm, 50 mW/cm^2, 180 J), 4-8 mm diameter tumors",70-100%
same,onset of inflammation of the photoirradiated spot,[1]; PDT alone (EtNBS),≤ 30 min
same,time for noticeable tumor to regress completely,[1]; PDT alone (EtNBS),14 days
same,time of eschar formation,[1]; PDT alone (EtNBS),24 to 48 h
same,time of maximum inflammation,[1]; PDT alone (EtNBS),3 to 5 h
same,time until inflammation completely subsides,[1]; PDT alone (EtNBS),48 to 72 h
same,tumor volume fourteen days following PDT,EMT-6 cells [2],significantly reduced
same,tumor volume fourteen days following PDT,EMT-6 cells [3]; [7],significantly reduced
same,tumor volume fourteen days following PDT,EMT-6 cells [4]; [7],significantly reduced
COc1ccc2[nH]cc(CCNC(C)=O)c2c1 [melatonin],tumor volume fourteen days following PDT,EMT-6 cells [3]; EtNBS PDT plus ip bromocriptine and ip melatonin,significantly reduced or entirely eradicated
same,tumor volume fourteen days following PDT,"EMT-6 cells [3]; ip melatonin 8 mg/kg at 10 hours plus ip bromocriptine 50 mcg/mouse at 0 hours after light onset, no PDT",significantly reduced
same,tumor volume fourteen days following PDT,EMT-6 cells [4]; EtNBS PDT plus ip melatonin,significantly reduced or entirely eradicated
same,tumor volume fourteen days following PDT,"EMT-6 cells [4]; ip melatonin alone, 8 mg/kg at 10 hours after light onset for 14 days",significantly reduced
same,effect on growth of tumors,"EMT-6 cells [4]; mice, melatonin at the time when melatonin levels are peaking in healthy mice",potent inhibitory effect on growth of tumors
hematoporphyrin [HPD],dermal photosensitization due to prolonged retention in the skin,[5],can persist for months
"prolactin: hormone; prolactin enhancer, given as intraperitoneal ovine prolactin (protein, UniProt P01240 31-229, looked up) Prolactin: TPVCPNGPGNCQVSLRDLFDRAVMVSHYIHNLSSEMFNEFDKRYAQGKGFITMALNSCHTSSLPTPEDKEQAQQTHHEVLMSLILGLLRSWNDPLYHLVTEVRGMKGVPDAILSRAIEIEEENKRLLEGMEMIFGQVIPGAKETEPYPVWSGLPSLQTKDEDARHSAFYNLLHCLRRDSSKIDTYLKLLNCRIIYNNNC",tumor cure rate,"[1]; ip prolactin 20 mcg/mouse/day at 10 hours after light onset from day of inoculation, added to EtNBS PDT (50 mW/cm^2, 180 J)",100%
same,time at which the irradiated area has healed completely,[1]; [8],4 to 7 days
same,time to complete tumor eradication,[1]; [8],≤ 24 h
same,time to severe eschar formation,[1]; [8],≤ 24 h
same,treated animals exhibiting severe eschar formation,[1]; [8],100%
same,tumor cure rate,"[1]; mouse models, prolactin at the appropriate time interval combined with PDT",~100%
same,treated animals exhibiting severe eschar formation,[6]; ip ovine prolactin 20 mcg/mouse at 10 hours after light onset added to Dye 4-115 PDT,100%
same,time at which the irradiated area will heal completely,[6]; [9],4 to 7 days
same,time to complete tumor eradication,[6]; [9],≤ 24 h
same,time to severe eschar formation,[6]; [9],≤ 24 h
same,increase in body fat levels,body fat stores; prolactin injections at midday of a 16-hour daily photoperiod,3 fold
same,reduction of fat stores,body fat stores; prolactin injections given early in the photoperiod,50%
same,effect on immune function,immune responses,immunostimulatory effect
same,tumor burden,tumor burden,decreased tumor burden
